Measured values reported in article PMC9161374 (Science Translational Medicine, 2022).
Where “and” joins values, the source holds several entries; their conditions need not be identical. Identical values can stand only once.

What was measured:
[1] = test system: SARS-CoV-2 replicon system (pBAC-SARS-CoV-2-Replicon-Luc); assay: microbe, parasite or virus in culture; assay type: cell-based; conditions: Severe acute respiratory syndrome coronavirus 2, HEK-293T, 60 h
[2] = test system: SARS-CoV-2 (B.1); assay: Anti-SARS-CoV-2 activity in Vero E6 cells (viral yield by qRT-PCR); assay type: cell-based
[3] = test system: Vero E6 cells; assay: CCK-8 cell viability assay; assay type: cell-based, African green monkey; conditions: individual replicate values, Fig.S4
Outline: (§1)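 Vero E6 cells, 20,000/well, exposed to compound at 0–200 μM (0, 0.01, 0.1, 1, 5, 10, 50, 75, 100, 200 μM) for 48 h; viability read by CCK-8 and expressed as percentage versus drug concentration, mean ± SD.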

[4] = CCK-8 cell viability assay; assay type: cell-based, African green monkey; conditions: African green monkey; Vero E6 cells, 48 h, CCK8
Outline: as §1

[5] = test system: SARS-CoV-2 (Delta, B.1.617.2); assay: microbe, parasite or virus in culture; assay type: cell-based; conditions: for % Inhibition: delta
[6] = test system: SARS-CoV-2 (Beta, B.1.351); assay: microbe, parasite or virus in culture; assay type: cell-based; conditions: for % Inhibition: beta
[7] = test system: SARS-CoV-2 (B.1) in Huh7 cells; assay: Anti-SARS-CoV-2 activity in Huh7 cells (viral yield by qRT-PCR); assay type: cell-based; conditions: B.1, MOI 0.05, 48 h

In the case of `N#C[C@@]1(c2ccc3c(N)ncnn23)O[C@H](COC(=O)c2ccccc2)[C@@H](O)[C@H]1O` [ATV013], the EC50 ([1]; read-out: EC50 (Confidence 95%), replicon) is reported as 497 nM, the EC90 ([1]; read-out: EC90 (Confidence 95%), replicon) is reported as 1140 nM and the “% Inhibition” value ([2]; 0.1 μM, replicates, sheet Fig.S3) is reported as 0%. The “% Inhibition” value ([2]; 0.5 μM, replicates, sheet Fig.S3) was 0%, the “% Inhibition” value ([2]; 1 μM, replicates, sheet Fig.S3) was 54.9033% and the “% Inhibition” value ([2]; 2 μM, replicates, sheet Fig.S3) was 83.4601%. The “% Inhibition” value ([2]; 5 μM, replicates, sheet Fig.S3) was 91.8254%, the “% Inhibition” value ([2]; 10 μM, replicates, sheet Fig.S3) was 91.2053% and the “% Inhibition” value ([2]; B.1, 0.01 uM, Vero E6, replicates) was 0%. The “% Inhibition” value ([2]; B.1, 0.1 uM, Vero E6, replicates) was 0%, the “% Inhibition” value ([2]; B.1, 0.25 uM, Vero E6, replicates) was 0% and the “% Inhibition” value ([2]; B.1, 0.5 uM, Vero E6, replicates) was 0%. For the same compound, the “% Inhibition” value ([2]; B.1, 1 uM, Vero E6, replicates) was 0%, the “% Inhibition” value ([2]; B.1, 5 uM, Vero E6, replicates, 5 µM) was 99.7536% and the “% Inhibition” value ([2]; B.1, 10 uM, Vero E6, replicates, 10 µM) was 99.9918%. For the same compound, the “% Inhibition” value ([2]; B.1, 50 uM, Vero E6, replicates, 50 µM) was 99.9922%, the inhibition at 0.1 µM ([2]; Severe acute respiratory syndrome coronavirus 2, Vero C1008, 0.1 μM, replicates, sheet Fig.S3) was 0% and the inhibition at 0.5 µM ([2]; Severe acute respiratory syndrome coronavirus 2, Vero C1008, 0.5 μM, replicates, sheet Fig.S3) was 0%. The inhibition at 1 µM ([2]; Severe acute respiratory syndrome coronavirus 2, Vero C1008, 1 μM, replicates, sheet Fig.S3) was 62%, the inhibition at 2 µM ([2]; Severe acute respiratory syndrome coronavirus 2, Vero C1008, 2 μM, replicates, sheet Fig.S3) was 83.8% and the inhibition at 5 µM ([2]; Severe acute respiratory syndrome coronavirus 2, Vero C1008, 5 μM, replicates, sheet Fig.S3) was 93.6%. The inhibition at 10 µM ([2]; Severe acute respiratory syndrome coronavirus 2, Vero C1008, 10 μM, replicates, sheet Fig.S3) was 93.5%, the inhibition at 0.01 µM ([2]; Severe acute respiratory syndrome coronavirus 2, Vero C1008, B.1, 0.01 uM, Vero E6, replicates) was 0% and the inhibition at 0.1 µM ([2]; Severe acute respiratory syndrome coronavirus 2, Vero C1008, B.1, 0.1 uM, Vero E6, replicates) was 0%. The inhibition at 0.25 µM ([2]; Severe acute respiratory syndrome coronavirus 2, Vero C1008, B.1, 0.25 uM, Vero E6, replicates) was 0%, the inhibition at 0.5 µM ([2]; Severe acute respiratory syndrome coronavirus 2, Vero C1008, B.1, 0.5 uM, Vero E6, replicates) was 0% and the inhibition at 1 µM ([2]; Severe acute respiratory syndrome coronavirus 2, Vero C1008, B.1, 1 uM, Vero E6, replicates) was 0%. The inhibition at 5 µM ([2]; Severe acute respiratory syndrome coronavirus 2, Vero C1008, B.1, 5 uM, Vero E6, replicates) was 99.5%, the inhibition at 10 µM ([2]; Severe acute respiratory syndrome coronavirus 2, Vero C1008, B.1, 10 uM, Vero E6, replicates) was 100% and the inhibition at 50 µM ([2]; Severe acute respiratory syndrome coronavirus 2, Vero C1008, B.1, 50 uM, Vero E6, replicates) was 100%. For the same compound, the EC90 ([2]; Severe acute respiratory syndrome coronavirus 2, Vero C1008, read-out: EC90 (Confidence 95%)) was 2870 nM, the EC50 ([2]; Severe acute respiratory syndrome coronavirus 2, Vero C1008, MOI 0.05, 48 h) was 2260 nM and the “cell viability (% of control)” value ([3]; 1 μM compound, 1 µM) was 66.6435 % of control and 71.881 % of control and 81.6609 % of control. For the same compound, the “cell viability (% of control)” value ([3]; 2 μM compound, 2 µM) was 62.1939 % of control and 100.479 % of control and 98.8104 % of control, the “cell viability (% of control)” value ([3]; 5 μM compound, 5 µM) was 79.1116 % of control and 101.73 % of control and 106.643 % of control and the “cell viability (% of control)” value ([3]; 10 μM compound, 10 µM) was 79.4361 % of control and 86.4349 % of control and 92.6458 % of control. The “cell viability (% of control)” value ([3]; 20 μM compound, 20 µM) was 76.9332 % of control and 94.4535 % of control and 115.728 % of control, the “cell viability (% of control)” value ([3]; 50 μM compound, 50 µM) was 73.9991 % of control and 102.436 % of control and 88.29 % of control and the CC50 at 48 h [4] was > 50000 nM. For the same compound, the EC50 ([5]; Severe acute respiratory syndrome coronavirus 2, Vero C1008, 48 h, read-out: EC50 in Vero E6 cells, SARS-CoV-2 (Delta, B.1.617.2)) was 965 nM, the inhibition at 0.01 µM ([5]; Severe acute respiratory syndrome coronavirus 2, Vero C1008, delta, 0.01 uM, Vero E6, replicates) was 0% and the inhibition at 0.1 µM ([5]; Severe acute respiratory syndrome coronavirus 2, Vero C1008, delta, 0.1 uM, Vero E6, replicates) was 0%. It also gave an inhibition at 0.25 µM ([5]; Severe acute respiratory syndrome coronavirus 2, Vero C1008, delta, 0.25 uM, Vero E6, replicates) of 0%, an inhibition at 1 µM ([5]; Severe acute respiratory syndrome coronavirus 2, Vero C1008, delta, 1 uM, Vero E6, replicates) of 50.4% and an inhibition at 2 µM ([5]; Severe acute respiratory syndrome coronavirus 2, Vero C1008, delta, 2 uM, Vero E6, replicates) of 93.4%. For the same compound, the inhibition at 5 µM ([5]; Severe acute respiratory syndrome coronavirus 2, Vero C1008, delta, 5 uM, Vero E6, replicates) was 96.1%, the inhibition at 10 µM ([5]; Severe acute respiratory syndrome coronavirus 2, Vero C1008, delta, 10 uM, Vero E6, replicates) was 99.7% and the inhibition at 50 µM ([5]; Severe acute respiratory syndrome coronavirus 2, Vero C1008, delta, 50 uM, Vero E6, replicates) was 100%. The EC90 ([5]; Severe acute respiratory syndrome coronavirus 2, Vero C1008, read-out: EC90 (Confidence 95%), Vero-E6, Delta B.1.617.2) was 1410 nM, the “% Inhibition” value ([5]; 0.01 uM, Vero E6, replicates) was 0% and the “% Inhibition” value ([5]; 0.1 uM, Vero E6, replicates) was 0%. The “% Inhibition” value ([5]; 0.25 uM, Vero E6, replicates) was 0%, the “% Inhibition” value ([5]; 0.5 uM, Vero E6, replicates) was 0.1843% and 0% and the “% Inhibition” value ([5]; 1 uM, Vero E6, replicates) was 60.4565%. For the same compound, the “% Inhibition” value ([5]; 2 uM, Vero E6, replicates) was 90.993%, the “% Inhibition” value ([5]; 5 uM, Vero E6, replicates) was 93.9334% and the “% Inhibition” value ([5]; 10 uM, Vero E6, replicates) was 98.4346%. The “% Inhibition” value ([5]; 50 uM, Vero E6, replicates) was 99.9058%, the EC50 ([6]; Severe acute respiratory syndrome coronavirus 2, Vero C1008, 48 h, read-out: EC50 in Vero E6 cells, SARS-CoV-2 (Beta, B.1.351)) was 2430 nM and the inhibition at 0.01 µM ([6]; Severe acute respiratory syndrome coronavirus 2, Vero C1008, beta, 0.01 uM, Vero E6, replicates) was 0%. For the same compound, the inhibition at 0.1 µM ([6]; Severe acute respiratory syndrome coronavirus 2, Vero C1008, beta, 0.1 uM, Vero E6, replicates) was 0%, the inhibition at 0.25 µM ([6]; Severe acute respiratory syndrome coronavirus 2, Vero C1008, beta, 0.25 uM, Vero E6, replicates) was 0% and the inhibition at 0.5 µM ([6]; Severe acute respiratory syndrome coronavirus 2, Vero C1008, beta, 0.5 uM, Vero E6, replicates) was 0%. For the same compound, the inhibition at 1 µM ([6]; Severe acute respiratory syndrome coronavirus 2, Vero C1008, beta, 1 uM, Vero E6, replicates) was 0%, the inhibition at 2 µM ([6]; Severe acute respiratory syndrome coronavirus 2, Vero C1008, beta, 2 uM, Vero E6, replicates) was 23.7% and the inhibition at 5 µM ([6]; Severe acute respiratory syndrome coronavirus 2, Vero C1008, beta, 5 uM, Vero E6, replicates) was 99.7%. The inhibition at 10 µM ([6]; Severe acute respiratory syndrome coronavirus 2, Vero C1008, beta, 10 uM, Vero E6, replicates) was 99.9%, the inhibition at 50 µM ([6]; Severe acute respiratory syndrome coronavirus 2, Vero C1008, beta, 50 uM, Vero E6, replicates) was 99.9% and the EC90 ([6]; Severe acute respiratory syndrome coronavirus 2, Vero C1008, read-out: EC90 (Confidence 95%), Vero-E6, Beta B.1.351) was 3090 nM. The “% Inhibition” value ([6]; 0.01 uM, Vero E6, replicates) was 0%, the “% Inhibition” value ([6]; 0.1 uM, Vero E6, replicates) was 0% and the “% Inhibition” value ([6]; 0.25 uM, Vero E6, replicates) was 0%. For the same compound, the “% Inhibition” value ([6]; 0.5 uM, Vero E6, replicates) was 0%, the “% Inhibition” value ([6]; 1 uM, Vero E6, replicates) was 0% and the “% Inhibition” value ([6]; 2 uM, Vero E6, replicates) was 12.3832%. For the same compound, the “% Inhibition” value ([6]; 5 uM, Vero E6, replicates) was 99.5222%, the “% Inhibition” value ([6]; 10 uM, Vero E6, replicates) was 99.9634% and the “% Inhibition” value ([6]; 50 uM, Vero E6, replicates) was 99.9455%. The EC50 ([7]; Severe acute respiratory syndrome coronavirus 2, Huh-7, read-out: EC50 (Confidence 95%) in Huh7 cells) was 964 nM and the EC90 ([7]; Severe acute respiratory syndrome coronavirus 2, Huh-7, read-out: EC90 (Confidence 95%) in Huh7 cells) was 1320 nM.
